# Measurements: ChEMBL document CHEMBL1150565, “Cheilanthane sesterterpenes, protein kinase inhibitors, from a marine sponge of the genus Ircinia” (J Nat Prod, 2001)
# How the values were obtained:
# [1] = biological target: Ribosomal protein S6 kinase alpha-5 (Homo sapiens, UniProt O75582); experiment: Inhibition of MSK1 assessed as [33P] incorporation by scintillation proximity assay
# [2] = biological target: MAP kinase-activated protein kinase 2 (Homo sapiens, UniProt P49137); experiment: Inhibition of MAPKAPK2 assessed as [33P] incorporation by scintillation proximity assay
# Chain of MAP kinase-activated protein kinase 2 (P49137 whole entry): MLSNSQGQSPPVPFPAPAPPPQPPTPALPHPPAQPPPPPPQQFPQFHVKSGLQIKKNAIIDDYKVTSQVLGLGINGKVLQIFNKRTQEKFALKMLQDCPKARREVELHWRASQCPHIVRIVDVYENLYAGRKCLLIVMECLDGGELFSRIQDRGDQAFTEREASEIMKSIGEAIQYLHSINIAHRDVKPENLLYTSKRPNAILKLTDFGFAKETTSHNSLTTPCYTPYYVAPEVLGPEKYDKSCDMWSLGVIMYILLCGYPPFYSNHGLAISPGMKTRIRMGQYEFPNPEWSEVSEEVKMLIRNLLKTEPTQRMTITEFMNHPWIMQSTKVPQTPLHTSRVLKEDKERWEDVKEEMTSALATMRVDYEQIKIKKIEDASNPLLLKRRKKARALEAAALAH
# Chain of Ribosomal protein S6 kinase alpha-5 (O75582 whole entry): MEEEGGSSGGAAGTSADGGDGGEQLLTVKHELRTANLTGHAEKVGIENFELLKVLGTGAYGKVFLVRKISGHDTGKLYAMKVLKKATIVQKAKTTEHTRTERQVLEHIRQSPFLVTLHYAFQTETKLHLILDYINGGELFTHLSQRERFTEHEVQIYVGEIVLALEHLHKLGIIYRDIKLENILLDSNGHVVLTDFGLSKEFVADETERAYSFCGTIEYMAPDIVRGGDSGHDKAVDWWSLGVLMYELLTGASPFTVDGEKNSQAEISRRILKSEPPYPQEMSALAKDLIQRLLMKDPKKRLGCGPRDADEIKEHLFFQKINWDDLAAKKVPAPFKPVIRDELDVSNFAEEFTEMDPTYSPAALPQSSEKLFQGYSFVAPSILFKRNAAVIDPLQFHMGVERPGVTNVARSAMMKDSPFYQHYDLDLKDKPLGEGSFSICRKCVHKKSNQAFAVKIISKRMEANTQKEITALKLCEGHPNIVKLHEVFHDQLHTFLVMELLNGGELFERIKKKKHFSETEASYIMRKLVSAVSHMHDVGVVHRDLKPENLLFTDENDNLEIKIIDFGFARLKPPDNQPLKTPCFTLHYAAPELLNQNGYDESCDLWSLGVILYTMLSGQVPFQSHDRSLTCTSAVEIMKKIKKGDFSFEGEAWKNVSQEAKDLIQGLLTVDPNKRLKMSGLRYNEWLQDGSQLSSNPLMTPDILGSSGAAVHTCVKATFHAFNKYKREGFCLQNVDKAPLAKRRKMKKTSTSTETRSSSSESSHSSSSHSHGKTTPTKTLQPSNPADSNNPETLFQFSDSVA
Compound,IC50 [1],IC50 [2]
C=C1CC[C@H]2[C@@](C)(CC[C@H]3C(C)(C)CCC[C@]23C)[C@@H]1CC(O)C1=CC(=O)OC1O (mixture of isomers),4 µM,90 µM
C=C1CC[C@H]2[C@@](C)(CC[C@H]3C(C)(C)CCC[C@]23C)[C@@H]1CC1OC(=O)C=C1CO (stereo partly drawn),4 µM,90 µM
CC1(C)CCC[C@]2(C)[C@H]3CC[C@]4(C)O[C@@H](C5=CC(=O)OC5O)C[C@H]4[C@]3(C)CC[C@@H]12 (mixture of isomers),4 µM,90 µM
C=C1CC[C@H]2[C@@](C)(CC[C@H]3C(C)(C)CCC[C@]23C)[C@@H]1/C=C/C1=CC(=O)OC1O (mixture of isomers),4 µM,90 µM
